The METLIN SMRT retention time set (Domingo-Almenara et al. 2019)

Experiment: gradient 5% acetonitrile 3 min, to 50% in 2 min, to 85% in 15 min, held 3 min, 100 µL/min
Settings: column: Zorbax Extend-C18 2.1 x 50 mm; eluents: water / acetonitrile, 0.1% formic acid
How it was run: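 Retention time was recorded from adduct peaks, which were picked computationally and each inspected manually. Pure standards ran in mixtures of ~100 molecules on HPLC coupled to a quadrupole time-of-flight mass spectrometer, in positive and negative ionization mode, through a Zorbax Extend-C18 column (2.1 × 50 mm, 1.8 μm) at 100 μL/min. Eluents were water and acetonitrile, each with 0.1% formic acid.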

Molecule `Cc1c(Cl)cccc1NC(=O)C1CCN(c2cc(-n3ccnc3C)ncn2)CC1` has an RP-LC retention time of 581 s.
`CCC1=C(C(=O)Nc2ccccc2)C2CCCC3(C2)NCCCN13` (centres undefined) showed an RP-LC retention time of 611 s.
`CCc1cc(=O)n(CC(=O)NCc2ccc3c(c2)OCO3)c(N2CCOCC2)n1` showed an RP-LC retention time of 677 s.
Molecule `CNC(=O)C1CCCN(c2nc3ncn(CC(=O)Nc4ccc5c(c4)CCC5)c(=O)c3s2)C1` (centres undefined) has an RP-LC retention time of 688 s.
For `CCn1cc(C)c(C(=O)O)c1CC(=O)NCc1ccco1`, the RP-LC retention time was 702 s.
Molecule `Cn1cc(-c2ccc3nnc(C(F)(F)c4ccc5ncccc5c4)n3n2)cn1` has an RP-LC retention time of 694 s.
Molecule `CCOc1ccccc1CNC(=O)C1CCN(S(=O)(=O)c2ccc3c(c2)NC(=O)CO3)CC1` has an RP-LC retention time of 757 s.
Work on `O=C(CN1CCC(c2nc(-c3cccs3)no2)CC1)NCc1ccccc1` yielded an RP-LC retention time of 672 s.
Molecule `Cc1ncc2c(SCC(=O)NCc3ccc(F)cc3F)ncnc2n1` has an RP-LC retention time of 579 s.
In the case of `CCn1nc(CNC(=O)c2ccccn2)c2ccccc21`, the RP-LC retention time was 796 s.
With `Cc1sc2ccn(Cc3ccc(F)cc3)c(=O)c2c1C(=O)N1CCCC1` the RP-LC retention time was 764 s.
In the case of `Cc1ccc(-c2nc(C)c(C(=O)NC3CC3)s2)cc1`, the RP-LC retention time was 888 s.
With `Cc1[nH]c(C(=O)Nc2ccccc2)c(C)c1S(=O)(=O)N1CCCCC1` the RP-LC retention time was 925 s.
`Cn1cc(-c2cc3n(n2)CCC(=O)N3CCCC(=O)N2CCCCC2)c2ccccc21` showed an RP-LC retention time of 802 s.
`COc1ccc(C2Nc3ccc(C)cc3[C@H]3OCCC[C@@H]23)cc1O` (some centres undefined) showed an RP-LC retention time of 894 s.
With `O=C(Cn1c(=O)cc(-c2nc(C3CC3)no2)c2ccccc21)NCc1ccc(F)cc1` the RP-LC retention time was 923 s.
With `O=C(Nc1ccc2c(c1)C(=O)Nc1ccccc1O2)Oc1ccccc1` the RP-LC retention time was 813 s.
Molecule `CC1CCCN(C(=O)C2CC(=O)N(c3ccc4c(c3)CCN4C(=O)C3CC3)C2)C1` (centres undefined) has an RP-LC retention time of 758 s.
Molecule `O=C(NC1CCCCC1)c1ccn[nH]1` has an RP-LC retention time of 642 s.
`Cc1oc2cc3oc(=O)c(CCC(=O)N4CCN(c5ccccn5)CC4)c(C)c3cc2c1C` gave an RP-LC retention time of 682 s.
Work on `CCNc1cc(N2CCC(CCC(=O)NCC3CC3)CC2)ncn1` yielded an RP-LC retention time of 588 s.
In the case of `COc1ccccc1NS(=O)(=O)c1cc(N)ccc1N1CCCCC1`, the RP-LC retention time was 744 s.
In the case of `COCCn1cc(C(=O)Nc2ccc(F)cc2F)c2nn(-c3ccccc3)c(=O)c-2c1`, the RP-LC retention time was 1010 s.
Work on `COc1ccc(Cl)cc1NC(=O)N1CCCC(C)(C(=O)NCc2ccccc2C)C1` (centres undefined) yielded an RP-LC retention time of 1070 s.
In the case of `O=C(c1ccccc1)N1CCN(c2cc(-c3cccs3)[nH]n2)CC1`, the RP-LC retention time was 754 s.
With `COc1cc(C2OC(c3ccc(F)cc3)=NN2C(C)=O)cc(OC)c1OC` (centres undefined) the RP-LC retention time was 902 s.
Molecule `Cc1c(-c2noc(-c3cccc(F)c3)n2)nnn1-c1ccccc1` has an RP-LC retention time of 1090 s.
In the case of `COC(=O)c1ccc2c(c1)nnn2Cc1cccc(OC)c1`, the RP-LC retention time was 880 s.
`CC(=O)N1c2ccc(S(=O)(=O)N3CCOCC3)cc2CC1C(=O)N1CCN(c2ccccc2)CC1` (centres undefined) gave an RP-LC retention time of 776 s.
Work on `CCCc1noc(-c2ccnc(-n3ncc(C(=O)Nc4ccc(F)cc4)c3C)c2)n1` yielded an RP-LC retention time of 1120 s.
`Cc1cc(C(=O)OCC(=O)c2cccc([N+](=O)[O-])c2)c2ccccc2n1` gave an RP-LC retention time of 804 s.
Molecule `CC(C)N(CCC(=O)c1ccc2ccccc2c1)Cc1ccccc1` has an RP-LC retention time of 859 s.
`COC[C@@H]1CN(S(=O)(=O)c2c(C)noc2C)C[C@H]1c1ccncc1` showed an RP-LC retention time of 570 s.
`Cc1nc2cccnc2n1C1CCN(C(=O)Nc2ccc3c(c2)OCO3)CC1` showed an RP-LC retention time of 613 s.
Work on `Cc1ccc(CS(=O)(=O)N2CCC(CN3CCCC(C)C3)CC2)cc1` (centres undefined) yielded an RP-LC retention time of 688 s.
In the case of `CCN(CC)S(=O)(=O)N1CCC(C(=O)Nc2cccc(CCc3nc4ccc(C)cc4[nH]3)c2)CC1`, the RP-LC retention time was 708 s.
Molecule `Fc1ccc(F)c(-c2nc(-c3ccc4nncn4c3)no2)c1` has an RP-LC retention time of 801 s.
`COc1cccc(NC(=O)Cn2c(=O)n(-c3ccc(F)cc3)c(=O)c3c2cc(C)n3C)c1` gave an RP-LC retention time of 834 s.
With `N#Cc1cccc(C(=O)N2CCCn3nc(-c4ccc(Cl)cc4)cc3C2)c1` the RP-LC retention time was 933 s.
With `CCc1noc(NC(C)=O)c1-c1ccc(OC)c(S(=O)(=O)Nc2ccc(OC)cc2)c1` the RP-LC retention time was 749 s.
In the case of `COC(=O)c1sccc1NC(=O)Cn1c(C)cc(C)c(-c2nc(-c3ccc(C)cc3)no2)c1=O`, the RP-LC retention time was 1110 s.
For `CCc1ccccc1NC(=O)C1CC(=O)N(c2ccc3oc(C)nc3c2)C1` (centres undefined), the RP-LC retention time was 723 s.
Work on `CCCCNC(=O)C1CCCN1C(=O)c1ccc(NC(=O)C(C)(C)C)cc1` (centres undefined) yielded an RP-LC retention time of 693 s.
With `O=C(NCC(=O)N1CC[C@H](NC2CCC(O)(c3ccc(-c4ncccn4)cn3)CC2)C1)c1cccc(C(F)(F)F)c1` (some centres undefined) the RP-LC retention time was 674 s.
`CCC1CN2C=Nc3oc(C)c(C(=O)NCCc4ccccc4)c3C2=N1` (centres undefined) showed an RP-LC retention time of 666 s.
For `O=C(CCNc1c(-c2cccc(F)c2)nc2cnccn12)N1CCOCC1`, the RP-LC retention time was 630 s.
Work on `Cc1cccc(-c2c3c(=O)n(C)c(=O)n(C)c3c3n2CCOC3c2ccco2)c1` (centres undefined) yielded an RP-LC retention time of 934 s.
Molecule `CC(=O)c1cccc(NC(=O)N2CCN(Cc3ccccc3)c3ncccc32)c1` has an RP-LC retention time of 732 s.
Work on `CCCS(=O)(=O)N1CCC(c2noc(-c3cccnc3)n2)C1` (centres undefined) yielded an RP-LC retention time of 730 s.
Work on `CCC1CN2C=NC(N3CCN(C(=O)Nc4ccc(SC)cc4)CC3)=CC2=N1` (centres undefined) yielded an RP-LC retention time of 655 s.
With `CCN(CC)C(=O)CN1C(=O)C2CCCCN2c2ccc(S(=O)(=O)N3CCCC3)cc21` (centres undefined) the RP-LC retention time was 832 s.
For `COCCCNC(=O)c1ccc2c(c1)nc1n2CCCCC1`, the RP-LC retention time was 566 s.
Molecule `C=CCN(CC=C)C(=O)Cn1c(C)c(Cc2ccccc2)c(=O)n2nc(-c3ccccc3)nc12` has an RP-LC retention time of 1040 s.
Work on `Cc1nnsc1C(=O)Nc1ccc2c(c1)OCC(C)(C)C(=O)N2C` yielded an RP-LC retention time of 605 s.
In the case of `O=C(Cn1c(=O)cc(-c2nc(C3CC3)no2)c2ccccc21)NCc1cccc(Cl)c1`, the RP-LC retention time was 979 s.
`CC(=O)c1cccc(NC(=O)N2C[C@H](c3nc(-c4ccncc4)no3)[C@@H](C)C2)c1` showed an RP-LC retention time of 674 s.
Work on `Cc1ccc(N2CCN(Cc3c(C)noc3C)CC2)cc1` yielded an RP-LC retention time of 621 s.
Work on `Cc1ccnc(N2CCCC(C(=O)NCC3CCN(Cc4ccc(Cl)cc4)CC3)C2)n1` (centres undefined) yielded an RP-LC retention time of 624 s.
With `CCNC(=O)C1CCCN(c2nc3ncn(CC(=O)Nc4cccc(Cl)c4)c(=O)c3s2)C1` (centres undefined) the RP-LC retention time was 701 s.
Work on `CCc1ccc(-n2nnc(C(=O)N3CCC4(CC3)OCCO4)c2-c2ccncc2)cc1` yielded an RP-LC retention time of 766 s.
Work on `COc1ccc(-c2nnc(-c3cccnc3NCc3cc(OC)cc(OC)c3)o2)cc1` yielded an RP-LC retention time of 1160 s.
In the case of `CN1C(=O)c2cccn2CC1CNC(=O)c1n[nH]c(=O)c2ccccc12` (centres undefined), the RP-LC retention time was 764 s.
For `CN1CCN(CCNC(=O)C2CCc3sc(C(=O)N4CCCCCC4)cc3C2)CC1` (centres undefined), the RP-LC retention time was 601 s.
Molecule `Cc1nnsc1C(=O)NCc1c(F)cccc1Cl` has an RP-LC retention time of 861 s.
`Cc1cc(=O)n(CC(=O)Nc2ccccc2F)c(-c2ccccc2)n1` showed an RP-LC retention time of 1000 s.
Molecule `Cc1nc2cc(-c3noc(COc4ccccc4)n3)ccc2o1` has an RP-LC retention time of 1030 s.
For `COc1ccc(CNC(=O)C2CCCN(c3ccc(=O)n(-c4cccc(Cl)c4)n3)C2)cc1OC` (centres undefined), the RP-LC retention time was 798 s.
For `COc1ccc(-c2nc(CN(c3ccccc3)S(=O)(=O)c3cccs3)c(C)o2)cc1`, the RP-LC retention time was 1130 s.
`Cc1ccc(-c2nc3n(CC(=O)NC4CCCC4)c4c(c(=O)n3n2)CCC4)cc1` showed an RP-LC retention time of 789 s.
Work on `Cc1nc(-c2csc(S(=O)(=O)N3CCCC(C(=O)Nc4ccc(F)cc4C)C3)c2)no1` (centres undefined) yielded an RP-LC retention time of 892 s.
`Cc1ccccc1NC(=O)c1cc(C(C)(C)C)n2nccc2n1` showed an RP-LC retention time of 1310 s.
In the case of `COc1ccc(N2CCN(C(=O)C3CCCN(c4cnc5nccnc5c4)C3)CC2)cc1` (centres undefined), the RP-LC retention time was 737 s.
Work on `CN(C)C(=O)c1n[nH]c2c1CN(S(=O)(=O)c1ccccc1)CC2` yielded an RP-LC retention time of 660 s.
Molecule `OC1(c2ccc(Cl)cc2)CCN(Cc2c[nH]c3ccccc23)CC1` has an RP-LC retention time of 736 s.
Work on `Cc1noc(-c2ccc(-n3cnc(C(=O)NC4CCCCC4)c3)nc2)n1` yielded an RP-LC retention time of 883 s.
For `CN(CC1CCOCC1)C(=O)c1ccc(Br)cc1`, the RP-LC retention time was 761 s.
`NC(=O)C1CCN(C(=O)CCCn2c(=O)c3cccn3c3ccc(Br)cc32)CC1` showed an RP-LC retention time of 685 s.
For `Cc1cc2c(cc1S(=O)(=O)N1CCCC1C(=O)N1CCc3ccccc31)OCC(=O)N2` (centres undefined), the RP-LC retention time was 788 s.
For `Cc1cc2nn(CC(=O)Nc3c(C)cccc3C)c(=O)n2c(-c2ccc(F)cc2)n1`, the RP-LC retention time was 826 s.
Work on `O=C(c1cc(F)ccc1F)N1CCC2(CC1)N=C(c1ccc(Cl)cc1)NO2` yielded an RP-LC retention time of 902 s.
With `CCOc1ccc2cccc(NC(=O)C3CCN(S(C)(=O)=O)CC3)c2n1` the RP-LC retention time was 864 s.
`O=C(Cc1cccc(F)c1)N1CCC(n2cnnc2-c2ccccc2)C1` (centres undefined) showed an RP-LC retention time of 686 s.
Work on `COc1ccc(Cn2c(=O)c3sccc3n(Cc3nc(-c4ccc(SC)cc4)no3)c2=O)cc1` yielded an RP-LC retention time of 1160 s.
`CC(=O)Nc1ccc(S(=O)(=O)NCC2CCN(Cc3cccs3)CC2)c(C)c1` gave an RP-LC retention time of 547 s.
Molecule `CNS(=O)(=O)c1c[nH]c(=O)[nH]c1=O` has an RP-LC retention time of 624 s.
`O=C(Nc1ccc2c(c1)OCCO2)C1CCCN(c2ncc(-c3cccc(F)c3)cn2)C1` (centres undefined) gave an RP-LC retention time of 1040 s.
`CCc1nncn1C1CCN(S(=O)(=O)c2cc(OC)ccc2OC)CC1` gave an RP-LC retention time of 664 s.
In the case of `O=C(NCc1ccc(Cl)cc1)NCC(O)Cc1ccccc1` (centres undefined), the RP-LC retention time was 721 s.
For `O=C(Cn1cnc2sc3c(c2c1=O)CCCC3)Nc1cccc(Cl)c1`, the RP-LC retention time was 984 s.
